Holding throughout (format): functional
For experiment [1], the system named is Aspergillus flavus. Nature of the experiment: Antifungal activity against Aspergillus flavus after 24 hr by broth microdilution method. (In general: Broth dilution looks for growth in wells or tubes with falling amounts of substance.)
The test system of experiment [2] is Cyberlindnera jadinii. In words: Antifungal activity against Cyberlindnera jadinii after 24 hr by broth microdilution method. The conditions noted are these: Williopsis jadinii.
Experiment [3] has as its system Pichia kudriavzevii. In words: Antifungal activity against fluconazole-resistant Pichia kudriavzevii after 24 hr by broth microdilution method.
The subject of experiment [4] is Klebsiella pneumoniae. Nature of the experiment: Antibacterial activity against Klebsiella pneumoniae ATCC 700603 after 16 to 18 hr by broth microdilution method.
Experiment [5] deals with Prescottella equi. Nature of the experiment: Antibacterial activity against Rhodococcus equi ATCC 6939 after 16 to 18 hr by broth microdilution method. The conditions noted are these: Rhodococcus (subgen. Prescottella) equi.
The subject of experiment [6] is Scopulariopsis. In words: Antifungal activity against Scopulariopsis spp. after 24 hr by broth microdilution method.
Experiment [7] relates to Aspergillus fumigatus. Nature of the experiment: Antifungal activity against Aspergillus fumigatus after 24 hr by broth microdilution method.
For experiment [8], the system named is Staphylococcus xylosus. Nature of the experiment: Antibacterial activity against Staphylococcus xylosus ATCC 35033 after 16 to 18 hr by broth microdilution method.
The subject of experiment [9] is Sporothrix schenckii. In words: Antifungal activity against Sporothrix schenckii after 24 hr by broth microdilution method.
The subject of experiment [10] is Candida albicans. Nature of the experiment: Antifungal activity against Candida albicans ATCC 90028 after 24 hr by broth microdilution method. As to conditions: ATCC 90028, 24 h.
Experiment [11] relates to Candida tropicalis. In words: Antifungal activity against Candida tropicalis after 24 hr by broth microdilution method.
The test system of experiment [12] is Candida parapsilosis. Nature of the experiment: Antifungal activity against Candida parapsilosis ATCC 22019 after 24 hr by broth microdilution method. As to conditions: Lodderomyces parapsilosis, ATCC 22019, 24 h.
Experiment [13] relates to Trichosporon asahii. Nature of the experiment: Antifungal activity against Trichosporon asahii after 24 hr by broth microdilution method.
Experiment [14] has as its system Fusarium sp. Nature of the experiment: Antifungal activity against Fusarium sp. after 24 hr by broth microdilution method.
Experiment [15] deals with Penicillium sp. In words: Antifungal activity against Penicillium sp. after 24 hr by broth microdilution method.
In experiment [16] the test system is Escherichia coli. Nature of the experiment: Antibacterial activity against Escherichia coli ATCC 35218 after 16 to 18 hr by broth microdilution method.
For experiment [17], the system named is Candida parapsilosis. In words: Antifungal activity against fluconazole-resistant Candida parapsilosis after 24 hr by broth microdilution method. The conditions noted are these: Lodderomyces parapsilosis.
Experiment [18] has as its system Elizabethkingia meningoseptica. In words: Antibacterial activity against Elizabethkingia meningoseptica ATCC 13253 after 16 to 18 hr by broth microdilution method.
The subject of experiment [19] is Rhizomucor. Nature of the experiment: Antifungal activity against Rhizomucor spp. after 24 hr by broth microdilution method.
Experiment [20] has as its system Staphylococcus aureus. Nature of the experiment: Antibacterial activity against Staphylococcus aureus ATCC 43300 after 16 to 18 hr by broth microdilution method.
Experiment [21] has as its system Bacillus subtilis. Nature of the experiment: Antibacterial activity against Bacillus subtilis ATCC 6051 after 16 to 18 hr by broth microdilution method.
The subject of experiment [22] is Pichia kudriavzevii. Nature of the experiment: Antifungal activity against Pichia kudriavzevii after 24 hr by broth microdilution method.
The test system of experiment [23] is Klebsiella oxytoca. Nature of the experiment: Antibacterial activity against Klebsiella oxytoca ATCC 13182 after 16 to 18 hr by broth microdilution method.
The test system of experiment [24] is Aspergillus flavus. In words: Antifungal activity against Aspergillus flavus MRC 2527 after 24 hr by broth microdilution method. As to conditions: MRC 2527, 24 h.
Experiment [25] has as its system Candida albicans. Nature of the experiment: Antifungal activity against fluconazole-susceptible Candida albicans.
For experiment [26], the system named is Candida albicans. In words: Antifungal activity against fluconazole-resistant Candida albicans.

In brackets after ≈: the same amount, converted by molar mass. Where only a bound is given, the exact number is not on record here.

For orientation: MIC means the smallest concentration in the dilution series that meets the test's criterion for growth inhibition. Low values mean inhibition by little substance, high ones a need for much substance.

Regarding `CC(C)=CCC/C(C)=C/CNCCNC12CC3CC(CC(C3)C1)C2.Cl`, the MIC in experiment [1] is over 500 µg/mL; in experiment [2] it was 31.2 µg/mL; in [3], 15.6 µg/mL; in experiment [4], 1000 µg/mL; in experiment [5], 125 µg/mL; in experiment [6], 125 µg/mL. Further, the MIC in [7] is 125 µg/mL; in experiment [8], 250 µg/mL; in experiment [9] it was 3.9 µg/mL; in experiment [10] it was 31.2 µg/mL; in experiment [11], 62.5 µg/mL; in experiment [12], 250 µg/mL. Also, the MIC in [13] came to 125 µg/mL; in experiment [14], 250 µg/mL; in [15] it was 62.5 µg/mL; in experiment [16], 500 µg/mL; in [17] it was 125 µg/mL; in experiment [18], 500 µg/mL. The MIC in [19] is 125 µg/mL; in experiment [20], 500 µg/mL; in experiment [21], 125 µg/mL; in experiment [22] it was 125 µg/mL; in [23] it was 500 µg/mL; in experiment [24], over 100 µg/mL.
Take `CC(C)=CCC/C(C)=C/CNCCNC1C2CC3CC(C2)CC1C3.Cl` (stereo not drawn): the MIC in experiment [1] was determined as 500 µg/mL; in experiment [2] it was 15.6 µg/mL; in experiment [3], 15.6 µg/mL; in experiment [25], 4 µg/mL; in experiment [4], 1000 µg/mL; in [5] it was 125 µg/mL. For the same molecule, the MIC was 4 µg/mL in [26]; 62.5 µg/mL in [6]; 250 µg/mL in [7]; 500 µg/mL in experiment [8]; 1.95 µg/mL in experiment [9]; 125 µg/mL in experiment [10]. Moreover, the MIC was 32.5 µg/mL in [11]; 250 µg/mL in experiment [12]; 125 µg/mL in experiment [13]; 125 µg/mL in [14]; 125 µg/mL in experiment [15]; 500 µg/mL in experiment [16]. Besides, the MIC came out at 250 µg/mL in experiment [17]; 500 µg/mL in experiment [18]; 125 µg/mL in [19]; 1000 µg/mL in [20]; 500 µg/mL in [21]; 250 µg/mL in experiment [22]. The MIC in experiment [23] was 500 µg/mL; in experiment [24], over 100 µg/mL.
`C[C@@H]1[C@H](O)[C@@H](C)/C=C/C=C/C=C/C=C/C=C/C=C/C=C/[C@H](O[C@@H]2O[C@H](C)[C@@H](O)[C@H](N)[C@@H]2O)C[C@@H]2O[C@](O)(C[C@@H](O)C[C@@H](O)[C@H](O)CC[C@@H](O)C[C@@H](O)CC(=O)O[C@H]1C)C[C@H](O)[C@H]2C(=O)O` [AMPHOTERICIN B]: the MIC in experiment [2] was found to be 0.31 µg/mL (≈ 0.335 µM); in [6], 10 µg/mL (≈ 10.8 µM); in [9], 5 µg/mL (≈ 5.41 µM); in experiment [10], 0.62 µg/mL (≈ 0.671 µM); in [12], 0.04 µg/mL (≈ 0.0433 µM); in experiment [13], 0.31 µg/mL (≈ 0.335 µM). In addition, the MIC in experiment [14] was determined as 2.5 µg/mL (≈ 2.71 µM); in experiment [17], 0.02 µg/mL (≈ 0.0216 µM); in experiment [19], 0.31 µg/mL (≈ 0.335 µM).
Consider `CC(C)CCCC(C)CCNCCNC12CC3CC(CC(C3)C1)C2.Cl` (stereo not drawn), for which the MIC came out at 31.2 µg/mL in experiment [1]; 1.95 µg/mL in [2]; 0.98 µg/mL in [3]; 62.5 µg/mL in experiment [4]; 15.6 µg/mL in experiment [5]; 1.95 µg/mL in experiment [6]. The MIC was 15.6 µg/mL in experiment [7]; 15.6 µg/mL in [8]; 0.49 µg/mL in experiment [9]; 3.9 µg/mL in experiment [10]; 3.9 µg/mL in [11]; 15.6 µg/mL in experiment [12]. The MIC amounted to 7.8 µg/mL in experiment [13]; 7.8 µg/mL in experiment [14]; 7.8 µg/mL in [15]; 31.2 µg/mL in [16]; 7.8 µg/mL in [17]; 31.2 µg/mL in experiment [18]. Further, the MIC came to 7.8 µg/mL in experiment [19]; 62.5 µg/mL in experiment [20]; 15.6 µg/mL in experiment [21]; 15.6 µg/mL in experiment [22]; 62.5 µg/mL in [23]; 25 µg/mL in [24].
With `CC(C)=CCC/C(C)=C/CC/C(C)=C/CNCCNC1C2CC3CC(C2)CC1C3.Cl` (stereo not drawn), the MIC came out at 15.6 µg/mL in experiment [1]; 1.95 µg/mL in experiment [2]; 1.95 µg/mL in [3]; 125 µg/mL in [4]; 7.8 µg/mL in experiment [5]; 3.9 µg/mL in [6]. Also, the minimal inhibitory concentration (MIC) in [7] amounted to 7.8 µg/mL; in experiment [8], 7.8 µg/mL; in experiment [9], 0.98 µg/mL; in [10], 7.8 µg/mL; in experiment [11] it was 3.9 µg/mL; in [12] it was 7.8 µg/mL. Further, the MIC was found to be 3.9 µg/mL in experiment [13]; 7.8 µg/mL in experiment [14]; 3.9 µg/mL in experiment [15]; 7.8 µg/mL in [16]; 3.9 µg/mL in experiment [17]; 15.6 µg/mL in experiment [18]. Moreover, the MIC in [19] was determined as 7.8 µg/mL; in experiment [20], 15.6 µg/mL; in experiment [21], 7.8 µg/mL; in experiment [22], 3.9 µg/mL; in experiment [23], 15.6 µg/mL; in experiment [24] it was 25 µg/mL.
On to `CC(C)CCCC(C)CCCC(C)CCNCCNC1C2CC3CC(C2)CC1C3.Cl` (stereo not drawn), for which the MIC in experiment [1] was determined as 25 µg/mL; in experiment [2], 3.13 µg/mL; in [3] it was 3.13 µg/mL; in experiment [4] it was 250 µg/mL; in [5], 3.9 µg/mL; in experiment [6] it was 3.13 µg/mL. The MIC in experiment [7] was 12.5 µg/mL; in experiment [8] it was 3.9 µg/mL; in experiment [9], 1.56 µg/mL; in [10] it was 6.25 µg/mL; in [11], 6.25 µg/mL; in [12], 6.25 µg/mL. The MIC in [13] was 6.25 µg/mL; in experiment [14] it was 12.5 µg/mL; in [15] it was 6.25 µg/mL; in experiment [16], 7.8 µg/mL; in experiment [17] it was 6.25 µg/mL; in experiment [18] it was 7.8 µg/mL. In addition, the MIC in experiment [19] is 12.5 µg/mL; in experiment [20] it was 7.8 µg/mL; in [21] it was 3.9 µg/mL; in experiment [22] it was 6.25 µg/mL; in [23] it was 31.2 µg/mL; in [24], over 100 µg/mL.
`CC(C)CCCC(C)CCNCCNC1C2CC3CC(C2)CC1C3.Cl` (stereo not drawn): the MIC amounted to 31.2 µg/mL in experiment [1]; 1.95 µg/mL in experiment [2]; 0.98 µg/mL in experiment [3]; 125 µg/mL in [4]; 7.8 µg/mL in experiment [5]; 1.95 µg/mL in [6]. Further, the MIC was 7.8 µg/mL in experiment [7]; 15.6 µg/mL in experiment [8]; 0.49 µg/mL in experiment [9]; 3.9 µg/mL in experiment [10]; 7.8 µg/mL in experiment [11]; 7.8 µg/mL in experiment [12]. Besides, the MIC in experiment [13] was 7.8 µg/mL; in experiment [14], 7.8 µg/mL; in [15] it was 3.9 µg/mL; in experiment [16] it was 31.2 µg/mL; in experiment [17], 7.8 µg/mL; in [18], 31.2 µg/mL. Besides, the MIC in [19] stood at 7.8 µg/mL; in [20] it was 31.2 µg/mL; in [21] it was 15.6 µg/mL; in experiment [22] it was 7.8 µg/mL; in [23] it was 62.5 µg/mL; in [24], 25 µg/mL.
As for `NC[C@@H]1O[C@H](O[C@H]2[C@@H](O)[C@H](O[C@@H]3[C@@H](O)[C@H](N)C[C@H](N)[C@H]3O[C@H]3O[C@H](CN)[C@@H](O)[C@H](O)[C@H]3N)O[C@@H]2CO)[C@H](N)[C@@H](O)[C@@H]1O` [FRAMYCETIN], the MIC in experiment [4] stood at 6.25 µg/mL (≈ 10.2 µM); in [5] it was 1.56 µg/mL (≈ 2.54 µM); in experiment [8] it was 0.2 µg/mL (≈ 0.325 µM); in [16] it was 3.13 µg/mL (≈ 5.09 µM); in experiment [18], 12.5 µg/mL (≈ 20.3 µM); in [20], 25 µg/mL (≈ 40.7 µM). Also, the results for the MIC in experiment [21] and in experiment [23] were 0.78 µg/mL (≈ 1.27 µM) and 6.25 µg/mL (≈ 10.2 µM), respectively.

These data come from ChEMBL document CHEMBL3046423, “SQ109 analogues as potential antimicrobial candidates” (2011).
